Values joined by “and” are separate entries in the source; they are usually repeats but may differ in a detail not shown here. Identical values can stand only once.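 Results reflect a 48-hour exposure of cells in 96-well plates to compound at five concentrations. Abbreviation: GI50, concentration required for 50% inhibition of growth. Definition used: TGI = concentration required for complete inhibition of growth.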
Key:
Assay in all cases: growth of human tumour cells (NCI), 48 h
[1] = tested on: SF-295 CNS
[2] = tested on: SNB-19 CNS
[3] = tested on: OVCAR-5 ovarian
[4] = tested on: MOLT-4 leukemia
[5] = tested on: HCT-15 colon
[6] = tested on: HCC-2998 colon
[7] = tested on: A549 NSCLC
[8] = tested on: UO-31 renal
[9] = tested on: MALME-3M melanoma
[10] = tested on: SK-OV-3 ovarian

## COC(=O)CCc1cc(OC)c2c(c1)C(C(=O)OC)C(c1ccc(OC)c(OC)c1)O2 (stereo not drawn)
[1]
  GI50: > 100 µM and 17.1 µM
  TGI: > 100 µM
[2]
  GI50: > 100 µM and 15.8 µM
  TGI: > 100 µM
[3]
  TGI: > 100 µM
[4]
  GI50: 65.1 µM and 7.2 µM
  TGI: > 100 µM
[5]
  TGI: > 100 µM
[6]
  TGI: > 100 µM
[7]
  GI50: > 100 µM and 38 µM
  TGI: > 100 µM
[8]
  GI50: 84.9 µM and 36.8 µM
  TGI: > 100 µM
[9]
  GI50: > 100 µM and 20 µM
  TGI: > 100 µM
[10]
  GI50: > 100 µM and 39.6 µM
  TGI: > 100 µM

## CN[C@@H](C)C(=O)N[C@H](C(=O)N1CCC[C@H]1C(=O)N[C@H]1c2ccccc2C[C@H]1OCC#CC#CCO[C@@H]1Cc2ccccc2[C@@H]1NC(=O)[C@@H]1CCCN1C(=O)[C@@H](NC(=O)[C@H](C)NC)C1CCCCC1)C1CCCCC1
[1]
  GI50: 0.514 µM
  TGI: 20.8 µM
[2]
  GI50: 3.24 µM
  TGI: 8.87 µM
[3]
  GI50: 18.1 µM
  TGI: 34.6 µM
[4]
  GI50: 1.92 µM
  TGI: 4.57 µM
[5]
  GI50: 17.5 µM
  TGI: 40 µM
[6]
  GI50: 1.77 µM
  TGI: 4.45 µM
[7]
  GI50: 15.5 µM
  TGI: 31.5 µM
[8]
  GI50: > 44.2 µM
  TGI: > 59.3 µM
[9]
  GI50: < 0.01 µM
[10]
  GI50: < 0.01 µM
  TGI: < 0.01 µM

## CCN(CC)CCCC(C)Nc1c2ccc(Cl)cc2nc2ccc(OC)cc12 (stereo not drawn)
[1]
  GI50: 1.55 µM
  TGI: 3.51 µM and 2.4 µM
[2]
  GI50: 1.96 µM
  TGI: 10.8 µM and 16.2 µM
[3]
  GI50: 2.34 µM
  TGI: 6.45 µM and 4.75 µM
[4]
  GI50: 0.863 µM
  TGI: 4.34 µM and 2.52 µM
[5]
  GI50: 1.61 µM
  TGI: 7.18 µM and 5.67 µM
[6]
  TGI: 2.9 µM and 2.69 µM
[7]
  TGI: 3.68 µM and 3.64 µM
[8]
  GI50: 1.52 µM
  TGI: 3.12 µM and 5.49 µM
[9]
  TGI: 3.79 µM and 3.3 µM
[10]
  GI50: 2.69 µM
  TGI: 10.3 µM and 12.6 µM

## CSc1ccc(C2=NN(C(=O)c3ccc(F)cc3)C(c3ccc(F)cc3)C2)cc1 (stereo not drawn)
[1]
  GI50: 17.9 µM
  TGI: 33.7 µM
[2]
  GI50: 14.3 µM
  TGI: 27.5 µM
[3]
  GI50: 18.2 µM
  TGI: 33.3 µM
[4]
  GI50: 12.3 µM
  TGI: 38.2 µM
[5]
  GI50: 5.39 µM
  TGI: 20.5 µM
[6]
  GI50: 12.3 µM
  TGI: 25.6 µM
[7]
  GI50: 11.7 µM
  TGI: 26.9 µM
[8]
  GI50: 12.6 µM
  TGI: 25.1 µM
[9]
  GI50: 12.1 µM
  TGI: 26 µM
[10]
  GI50: 16.9 µM
  TGI: 31.1 µM

## COc1cc(C(=O)/C(C)=C/c2c[nH]c3ccccc23)cc(OC)c1OC
[1]
  GI50: 0.00298 µM
  TGI: 1.61 µM
[2]
  GI50: 0.00406 µM
  TGI: > 100 µM
[3]
  GI50: 0.0842 µM
  TGI: > 100 µM
[4]
  GI50: 0.00546 µM
  TGI: 37 µM
[5]
  GI50: 0.0034 µM
  TGI: > 100 µM
[6]
  GI50: 0.0043 µM
  TGI: > 100 µM
[7]
  GI50: 0.0041 µM
  TGI: > 100 µM
[8]
  GI50: 0.00796 µM
  TGI: > 100 µM
[9]
  GI50: 14.2 µM
  TGI: > 100 µM
[10]
  GI50: 0.00768 µM
  TGI: 76.8 µM

## Cc1ccccc1NC(=O)N/C(N)=N/c1nc(-c2cccc([N+](=O)[O-])c2)cs1
[1]
  GI50: 1.53 µM
  TGI: 3.62 µM
[2]
  GI50: 3.29 µM
  TGI: 15.8 µM
[3]
  GI50: 4.34 µM
  TGI: > 100 µM
[4]
  GI50: 3.39 µM
  TGI: > 100 µM
[5]
  GI50: 1.56 µM
  TGI: 34.6 µM
[6]
  GI50: 3.16 µM
  TGI: > 100 µM
[7]
  GI50: 2.39 µM
  TGI: 6.98 µM
[8]
  GI50: 1.29 µM
  TGI: 3.83 µM
[9]
  GI50: 0.943 µM
  TGI: 4.73 µM
[10]
  GI50: 2.55 µM
  TGI: 17.8 µM

## COc1cc(/C=C/C(=O)CC(=O)/C=C/c2cc(OC)c(OC)c(OC)c2)cc(OC)c1OC
[1]
  GI50: 3.16 µM
  TGI: 17.2 µM
[2]
  GI50: 4.36 µM
  TGI: > 100 µM
[3]
  GI50: 17.2 µM
  TGI: > 100 µM
[4]
  GI50: 2.98 µM
  TGI: > 100 µM
[5]
  GI50: 3.32 µM
  TGI: 12.7 µM
[6]
  GI50: 15.9 µM
  TGI: > 100 µM
[7]
  GI50: 5.76 µM
  TGI: > 100 µM
[8]
  GI50: 3 µM
  TGI: 13.1 µM
[9]
  GI50: 5.06 µM
  TGI: 21.7 µM
[10]
  GI50: 12 µM
  TGI: 67.6 µM

## COc1cc(OC)cc(C2CC(=O)Nc3c2c(C)nn3-c2nc3ccccc3[nH]2)c1 (stereo not drawn)
[1]
  GI50: 1.58 µM
  TGI: 3.85 µM
[2]
  GI50: 4.13 µM
  TGI: > 100 µM
[3]
  GI50: 4.15 µM
  TGI: > 100 µM
[4]
  GI50: 0.0728 µM
  TGI: 0.434 µM
[5]
  GI50: 3.73 µM
  TGI: > 100 µM
[6]
  GI50: 3.7 µM
  TGI: 56.5 µM
[7]
  GI50: 3.18 µM
  TGI: 15.5 µM
[8]
  GI50: 3.22 µM
  TGI: 11.4 µM
[9]
  GI50: 3.66 µM
  TGI: > 100 µM
[10]
  GI50: 2.41 µM
  TGI: 5.49 µM

## CCCCCCCCC[C@@H]1CC(=O)OCC2OC(O[C@H](CCCCCCCCC)CC(=O)OCC3OC(O[C@H](CCCCCCCCC)CC(=O)OCC4OC(O1)C(O)C(O)C4O)C(O)C(O)C3O)C(O)C(O)C2O (stereo partly drawn)
[1]
  TGI: 27.1 µM
[2]
  TGI: 23.6 µM
[3]
  TGI: 22.5 µM
[4]
  TGI: 20.6 µM
[5]
  TGI: 21 µM
[6]
  TGI: 24.7 µM
[7]
  TGI: 29.4 µM
[8]
  TGI: 24.6 µM
[9]
  TGI: 22.3 µM
[10]
  TGI: 26.5 µM

## Nc1c(C(=O)c2ccc(Cl)cc2)sc(Nc2ccccc2)c1-c1nc2ccccc2s1
[1]
  GI50: 2.18 µM
  TGI: 10.8 µM
[2]
  GI50: 4.56 µM
  TGI: > 100 µM
[3]
  GI50: > 100 µM
  TGI: > 100 µM
[4]
  GI50: 12.3 µM
  TGI: > 89.6 µM
[5]
  GI50: 2.44 µM
  TGI: > 100 µM
[6]
  GI50: > 100 µM
  TGI: > 100 µM
[7]
  GI50: > 100 µM
  TGI: > 100 µM
[8]
  GI50: 2.16 µM
  TGI: > 100 µM
[9]
  GI50: 0.751 µM
  TGI: > 100 µM
[10]
  GI50: 1.99 µM
  TGI: 19 µM

## CC(=O)Nc1ccc(C(=O)NN2C(=O)C(Cl)C2c2ccc(Cl)cc2)cc1 (stereo not drawn)
[1]
  TGI: 44.7 µM
[2]
  TGI: 59.2 µM
[3]
  TGI: > 100 µM
[4]
  TGI: > 100 µM
[5]
  TGI: > 100 µM
[6]
  TGI: > 100 µM
[7]
  TGI: > 100 µM
[8]
  TGI: > 100 µM
[9]
  TGI: > 65.8 µM
[10]
  TGI: 71.9 µM

## COc1cc(OC)c(/C=C/S(=O)(=O)Cc2cnc(OC)c(N)c2)c(OC)c1
[1]
  GI50: < 0.0133 µM
  TGI: > 100 µM
[2]
  GI50: < 0.0223 µM
  TGI: > 100 µM
[3]
  GI50: < 0.0482 µM
  TGI: > 100 µM
[4]
  GI50: < 0.0218 µM
  TGI: > 100 µM
[5]
  GI50: < 0.019 µM
  TGI: > 100 µM
[6]
  GI50: < 0.0333 µM
  TGI: > 100 µM
[7]
  GI50: < 0.0263 µM
  TGI: > 100 µM
[8]
  GI50: < 0.0251 µM
  TGI: > 100 µM
[9]
  GI50: > 100 µM
  TGI: > 100 µM
[10]
  GI50: < 0.0211 µM
  TGI: > 100 µM

## CCNC(=O)CCN(C(=O)O)S(=O)(=O)c1ccc(NC(=O)c2ccccc2)cc1
[1]
  TGI: > 100 µM
[2]
  TGI: > 100 µM
[3]
  TGI: > 100 µM
[4]
  TGI: > 100 µM
[5]
  TGI: > 100 µM
[6]
  TGI: > 100 µM
[7]
  TGI: > 100 µM
[8]
  TGI: > 100 µM
[9]
  TGI: > 100 µM
[10]
  TGI: > 100 µM

Source: PubChem BioAssay (NCI)
